Key:
Lewis lung carcinoma = test: Primary tumor growth assay, Lewis lung carcinoma; assay type: in vivo, C57BL/6 mice; details: 2.5 mg/kg/day IP daily, treatment day 12
Method: The proteins for injection were mixed with Polymyxin B-Agarose (Sigma) for 30 minutes at room temperature to remove endotoxin. The endotoxin levels were less than 0.05 EU/mg as determined using the QCL-1000 assay kit (Biowhittaker, Walkersville, Md.). Proteins were filter-sterilized and the protein concentration was determined prior to injection. Five to eight week old C57BL/6 mice (Taconic, Germantown, N.Y.) were acclimated, caged in groups of four or less and their backs were shaved. Cultured B16F10 melanoma or Lewis lung carcinoma cells (1×10^6) were inoculated subcutaneously on the back of each mouse. Tumors were measured with a dial-caliper and the volumes were determined using the formula width^2×length×0.52. The treatment began 4 days after inoculation of the tumor cells. […] The experiments were terminated and mice sacrificed when the control mice began to die, usually at day 16 post-tumor cell injection.

B16F10 melanoma = test: Primary tumor growth assay, B16F10 melanoma; assay type: in vivo, C57BL/6 mice; details: for inhibition of B16F10 tumor growth: twelfth day of treatment
Method: The proteins for injection were mixed with Polymyxin B-Agarose (Sigma) for 30 minutes at room temperature to remove endotoxin. The endotoxin levels were less than 0.05 EU/mg as determined using the QCL-1000 assay kit (Biowhittaker, Walkersville, Md.). Proteins were filter-sterilized and the protein concentration was determined prior to injection.
Five to eight week old C57BL/6 mice (Taconic, Germantown, N.Y.) were acclimated, caged in groups of four or less and their backs were shaved. Cultured B16F10 melanoma or Lewis lung carcinoma cells (1×10^6) were inoculated subcutaneously on the back of each mouse. Tumors were measured with a dial-caliper and the volumes were determined using the formula width^2×length×0.52. The treatment began 4 days after inoculation of the tumor cells. […] The experiments were terminated and mice sacrificed when the control mice began to die, usually at day 16 post-tumor cell injection.
Each treatment group contained six five- to eight-week old C57BL/6 mice. Treatment was initiated four days after subcutaneous injection of 1×10^6 B16F10 melanoma cells. The mice received one IP injection each day of saline, TSR2, TSR2+RFK or TSR2+QFK (SEQ ID NO: 23). A soluble form of the TGFβ receptor (100 μg/mouse/injection) (Smith, J. D. et al., Circulation Research 84:1212–1222, 1999) was included in the saline or TSR2+RFK injections on treatment day 1 and 7 for two additional experimental groups. The recombinant TSR-containing proteins were used at 1.0 mg/kg/day.
Each treatment group contained six five- to eight-week old C57BL/6 mice. Treatment was initiated four days after subcutaneous injections of 1×10^6 B16F10 melanoma cells. The mice received one IP injection each day, of saline, all three type 1 repeats of human TSP-1 [3TSR (TSP1) in FIG. 9] or all three type 1 repeats of mouse TSP-2 [3TSR (TSP2) in FIG. 9]. Recombinant proteins were used at a dose of 2.5 mg/kg/day.

[1] = system: Human dermal microvessel endothelial cells (HDMEC); test: In vitro endothelial cell migration assay (FGF-2 induced, transwell); assay type: cell-based; details: for concentration maximally effective in inhibiting endothelial cell migration: HDMEC migration in response to FGF-2
Method: Human dermal microvessel endothelial cells (HDMEC) were isolated by the procedure of Richard et al., Exp. Cell Res. 240:1–6 (1998). The cells were cultured in Vitrogen precoated dishes, and maintained in EBM (Clonetics Corp, San Diego, Calif.) containing 20% fetal bovine serum (FBS), 1 mg/ml hydrocortisone acetate, 5×10^−5 M dibutyryl-cAMP, 200 U/ml penicillin, 100 U/ml streptomycin, 250 mg/ml amphotericin and 2–5 ng/ml VEGF. Murine melanoma B16F10 and murine Lewis lung carcinoma cells were obtained from the ATCC, and were maintained in Dulbecco's Modified Eagle Media (DMEM) supplemented with 10% FBS, […] penicillin, 50 U/ml streptomycin, and 2 mM glutamine (supplemented DMEM). Mink lung epithelial cells (MLECs-Clone 32) that have been stably transfected with an 800 bp fragment of the plasminogen activator inhibitor-1 (PAI-1) promoter fused to the firefly luciferase reporter gene were kindly provided by Dr. Daniel Rifkin (Abe, M. et al., Anal. Biochem. 216:276–284, 1994). The transfected MLECs were maintained in supplemented DMEM.
Cells at passage 7–10 were serum-starved and maintained in EBM with 0.1% BSA (control media) for 20 hours before trypsinization to harvest the cells. Cells were washed in EBM twice and resuspended in control media at a concentration of 1×10^6 cells/ml. […] of cells were packed down and kept frozen. They were lysed and serially diluted by CyQuant reagent (Molecular Probe, Eugene, Oreg.) to be used for standard curve construction.
Transwell membrane (24-well polycarbonate membrane, […] from Corning Costar Corporation, Cambridge, Mass.) coated with Vitrogen (30 mg/ml, Invitrogen) on both sides was used for chemotactic migration experiments. Coated transwells were inverted, […] of cell suspension applied to the top of the membrane and covered by the bottom plate carefully so that the cell suspension stayed on top of the membrane. The cells were allowed to adhere to the coated membrane for two hours in an incubator at 37° C. with 5% CO2. After the adhesion incubation, the plates were re-inverted, the bottom wells were filled with 0.4 ml control media and the top wells were filled with 0.1 ml control media containing testing reagents. The plate was returned to the incubator for 3.5 hours for the cells to migrate. At the end of the incubation, the transwells were washed in PBS and the cells on the […] of the membrane (unmigrated cells) were wiped away with a cotton swab. The membranes were cut out by scalpel and placed into 96-well plates and frozen at −80° C. overnight. […] Fluorescence reading was done 16 hours later with a SpectraFluor plate reader with excitation at 485 nm and emission at […]. The number of cells migrated was then calculated based on the standard curve.

B16F10 tumor cell = B16F10 tumor cell proliferation in vitro; assay type: cell-based, murine
TGFβ = test: Assay for TGFβ activation (MLEC luciferase assay on B16F10 conditioned media); assay type: cell-based, murine; details: for level of the active form of TGFβ as % of the total TGFβ: 5 μg/ml protein added, media conditioned by B16F10 melanoma cells, control 6.3%; for activation of TGFβ (in words): culture supernatant from B16F10 cells
Method: Human dermal microvessel endothelial cells (HDMEC) were isolated by the procedure of Richard et al., Exp. Cell Res. 240:1-6 (1998). The cells were cultured in Vitrogen precoated dishes, and maintained in EBM (Clonetics Corp, San Diego, Calif.) containing 20% fetal bovine serum (FBS), 1 mg/ml hydrocortisone acetate, 5×10^-5 M dibutyryl-cAMP, 200 U/ml penicillin, 100 U/ml streptomycin, 250 mg/ml amphotericin and 2-5 ng/ml VEGF. Murine melanoma B16F10 and murine Lewis lung carcinoma cells were obtained from the ATCC, and were maintained in Dulbecco's Modified Eagle Media (DMEM) supplemented with 10% FBS, […] penicillin, 50 U/ml streptomycin, and 2 mM glutamine (supplemented DMEM). Mink lung epithelial cells (MLECs-Clone 32) that have been stably transfected with an 800 bp fragment of the plasminogen activator inhibitor-1 (PAI-1) promoter fused to the firefly luciferase reporter gene were kindly provided by Dr. Daniel Rifkin (Abe, M. et al., Anal. Biochem. 216:276-284, 1994). The transfected MLECs were maintained in supplemented DMEM. B16F10 cells (2.5×10^5) were plated in a T25 flask and grown overnight in supplemented DMEM. The cells were rinsed once with 1.0 ml of serum-free DMEM and 2.5 ml of serum-free DMEM containing […] of the TSR, or […] recombinant protein were added. After an overnight incubation, conditioned media was collected and centrifuged at 12,000 rpm for 5 min to remove cellular debris. Undiluted media was used to determine the level of active TGFβ. The level of total TGFβ was determined by incubating the media at 80° C. for 10 min and diluting 1:5 in DMEM. One hundred microliters of conditioned media were added to wells of a 96-well plate containing 3×10^4 MLECs and the plates were incubated overnight. A standard curve was constructed by incubating 7.8 to 250 pg/ml of purified TGFβ with the […].) in DMEM. The media was removed and the cells were washed 3 times with cold PBS prior to the addition of […] of lysis buffer (PharMingen, San Diego, Calif.). Luciferase activity was measured using the Enhanced Luciferase Assay Kit PharMingen).

B16F10 tumors = test: Histological examination of B16F10 tumors (anti-CD31, TUNEL, PCNA); assay type: in vivo, C57BL/6 mice; details: 1.0 mg/kg/day, twelfth treatment day; for decrease in number of proliferating tumor cells: PCNA positive cells; for increase in tumor cell apoptosis: TUNEL; for reduction in capillary density: anti-CD31
Method: The tumor tissues were cut, fixed with neutral buffered formaldehyde, and embedded in paraffin according to standard histological procedures. Hematoxylin and eosin staining was employed for tissue morphology examination. Blood vessels were immunochemically stained by anti-CD31 antibody with a Vectastain ABC kit (Vector Laboratories, Burlingame, Calif.). Tumor cell apoptosis was detected by TUNEL assay (Abe, M. et al., Anal. Biochem, 216:276–84, 1994). The number of blood vessels was recorded by counting ten high-power fields. Tumor cell proliferation and the apoptotic index were estimated by the percentage of cells scored under a light microscope. A minimum of 1,000 cells was counted in each tumor sample. To better understand the effect of the recombinant protein treatment on tumor growth, we have determined the rate of proliferation, the apoptotic index and the capillary density for tumors in the saline control group, mice treated with the TSR2+RFK protein or mice treated with the TSR2 protein at an intermediate dose (1.0 mg/kg/day) where the largest effect of inclusion of the RFK sequence is observed. Tumors were removed and fixed on the twelfth treatment day. Capillaries were visualized with anti-CD31 antibody and apoptotic cells were identified by TUNEL. […] The number of proliferating cells was decreased by 35% by treatment with the TSR2+RFK protein (p<0.005), while treatment with the TSR2 protein reduced tumor cell proliferation by 7.8% (p<0.05) (FIG. 6C).

3TSR: recombinant protein containing all three TSRs of human TSP-1, amino acids 361–530
inhibition of Lewis lung carcinoma tumor growth (Lewis lung carcinoma): 73% | B16F10 tumor growth inhibition (in words) (B16F10 melanoma; 0.25 mg/kg/day IP daily): less effective | inhibition of B16F10 tumor growth (tumor volume) (B16F10 melanoma; 2.5 mg/kg/day IP daily): 81% | B16F10 tumor growth inhibition (in words) (B16F10 melanoma; 10 mg/kg/day): remains maximally active | B16F10 tumor growth inhibition compared with TSP-1 (in words) (B16F10 melanoma; dosages of 1.0 mg/kg/day and greater): more effective than TSP-1 | concentration maximally effective in inhibiting endothelial cell migration [1]: 10 ng/mL

TGFβ [reference compound]
B16F10 tumor cell proliferation in vitro (in words) (B16F10 tumor cell): inhibit

TSP-1: Human TSP-1 purified from the supernatant of thrombin-treated platelets
reduction of tumor growth (B16F10 melanoma; 0.25 mg/kg/day (0.6 nmoles/kg/day) injection): 56% | B16F10 tumor growth inhibition (in words) (B16F10 melanoma; 2.5 mg/kg/day IP daily): no effect | inhibition of tumor growth (B16F10 melanoma; systemic injection, 0.25 mg/ml as printed, twelfth treatment day): 56% | concentration up to which inhibition of endothelial cell migration is dose-dependent ([1]; biphasic response, concentrations above this level are less effective): 100 ng/mL

TSR2+QFK: recombinant version of the TSR2+RFK protein in which Q is substituted for R (arginine 413 to glutamine)
B16F10 tumor growth inhibition (in words) (B16F10 melanoma; 1.0 mg/kg/day IP daily, FIG. 8): less effective as an inhibitor of tumor growth than TSR2+RFK

TSR2: recombinant protein that contains the second TSR of human TSP-1, amino acids 416–473, excludes DKRFK
level of the active form of TGFβ as % of the total TGFβ (TGFβ): 4.8% | activation of TGFβ (in words) (TGFβ): does not | B16F10 tumor growth inhibition (in words) (B16F10 melanoma; 0.25 mg/kg/day IP daily): indistinguishable from the control group | inhibition of B16F10 tumor growth (B16F10 melanoma; 1.0 mg/kg/day IP daily): 38% | inhibition of B16F10 tumor growth (tumor volume) (B16F10 melanoma; 2.5 mg/kg/day IP daily): 68% | decrease in number of proliferating tumor cells (B16F10 tumors): 7.8% | increase in tumor cell apoptosis (B16F10 tumors): 1.9 fold | reduction in capillary density (B16F10 tumors): 64% | concentration maximally effective in inhibiting endothelial cell migration [1]: 10 ng/mL

B1: 3TSR (TSP2): recombinant protein with all three TSRs of mouse TSP-2, amino acids Asp 381 through Ile 550 (protein, listed as Mus musculus)
chain: DEGWSPWAEWTECSVTCGSGTQQRGRSCDVTSNTCLGPSIQTRTCSLGKCDTRIRQNGGWSHWSPWSSCSVTCGVGNVTRIRLCNSPVPQMGGKNCKGSGRETKPCQRDPCPIDGRWSPWSPWSACTVTCAGGIRERSRVCNSPEPQYGGKDCVGDVTEHQMCNKRSCPI
B16F10 tumor growth inhibition (in words) (B16F10 melanoma; 2.5 mg/kg/day IP daily): significantly less potent

B2: TSR2+RFK: recombinant longer version of the second type 1 repeat of human TSP-1 including the RFK sequence, amino acids 411–473 (protein, listed as Homo sapiens)
chain: DKRFKQDGGWSHWSPWSSCSVTCGDGVITRIRLCNSPSPQMNGKPCEGEARETKACKKDACPI
inhibition of Lewis lung carcinoma tumor growth (Lewis lung carcinoma): 77% | B16F10 tumor cell proliferation in vitro (in words) (B16F10 tumor cell): inhibit | level of the active form of TGFβ as % of the total TGFβ (TGFβ): 30% | activation of TGFβ (in words) (TGFβ): activates TGFβ | inhibition of B16F10 tumor growth (B16F10 melanoma; 1.0 mg/kg/day IP daily): 80% | inhibition of B16F10 tumor growth (tumor volume) (B16F10 melanoma; 2.5 mg/kg/day IP daily): 86% | decrease in number of proliferating tumor cells (B16F10 tumors): 35% | increase in tumor cell apoptosis (B16F10 tumors): 4 fold | reduction in capillary density (B16F10 tumors): 71% | concentration maximally effective in inhibiting endothelial cell migration [1]: 10 ng/mL

Source: US7223731B2, “Thrombospondin-1 type 1 repeat polypeptides” (Beth Israel Deaconess Medical Center, Inc., priority 2000, dated 2007)
